Results: patent publication EP2574339A1, “Pharmaceutical preparation for treating NADH-related illnesses” (Huber, Johannes, priority 2011, dated 2013)
“Also recorded” adds a separate entry of the source.

Columns and labels:
293mitoPARP Zellen [1] = experiment: Cell viability (MTT assay) of 293mitoPARP cells; format: cell-based, menschlichen Zellen; settings: for Zell-Überleben: FK866 (2 µM), 100 µM metabolite, 72 h, Fig. 3A
Description: (§1) Inhibitoren (2 µM FK866, 2 mM 3-AB, 10 µM NBTI, 2 µM Dipyridamol, 2 mM CMP, 25 µM PPADS, 1 mM Ap4A) oder Metaboliten (100 µM NAD^+, 100 µM NAAD, 100 µM NMN, 100 µM NAMN, 100 µM NA, 100 µM NR) wurden dem Zellkulturmedium zugesetzt, wie angegeben. […] Die Behandlung mit Inhibitoren und Metaboliten wurde für 24-48 h vor der Analyse von PAR Bildung und die Lebensfähigkeit der Zellen durchgeführt (72 h für 293mitoPARP Zellen, 96 h für HeLa S3-Zellen und 120 h für HepG2-Zellen). Die Lebensfähigkeit der Zellen wurde mittels MTT-Assay bestimmt.

HeLa S3-Zellen = experiment: Cell viability (MTT assay) of HeLa S3 cells; format: cell-based, menschlichen Zellen; settings: for Überleben: FK866 (2 µM), 100 µM metabolite, 96 h, Fig. 3B
Description: as §1

menschlichen Zellen [2] = experiment: Mitochondrial NAD+ generation / PAR formation from extracellular precursors with inhibitors, cell line not stated; format: cell-based; settings: for Funktion von NMN als extrazellulärer NAD^+-Vorläufer: NMN as precursor in presence of nucleoside transporter inhibitor (2 µM Dipyridamol, 10 µM NBTI); for NR-Nutzung: NR as precursor, nucleoside transporter inhibitor added
293mitoPARP Zellen [3] = experiment: Mitochondrial NAD+ content by PAR formation (mitoPARP) in 293mitoPARP cells; format: cell-based, menschlichen Zellen; settings: NamPRT inhibited by FK866 (2 µM), 100 µM metabolite in the medium, Fig. 3A
Description: Inhibitoren (2 µM FK866, 2 mM 3-AB, 10 µM NBTI, 2 µM Dipyridamol, 2 mM CMP, 25 µM PPADS, 1 mM Ap4A) oder Metaboliten (100 µM NAD^+, 100 µM NAAD, 100 µM NMN, 100 µM NAMN, 100 µM NA, 100 µM NR) wurden dem Zellkulturmedium zugesetzt, wie angegeben. NR wurde wie beschrieben bereitgestellt (Dölle et al., Anal. Biochem. 385 (2009), 377-379). Die Behandlung mit Inhibitoren und Metaboliten wurde für […] vor der Analyse von PAR Bildung und die Lebensfähigkeit der Zellen durchgeführt (72 h für 293mitoPARP Zellen, 96 h für HeLa S3-Zellen und 120 h für HepG2-Zellen). Die Lebensfähigkeit der Zellen wurde mittels MTT-Assay bestimmt.
Es wurden 293mitoPARP Zellen bereitgestellt, die ein Fusionsprotein exprimieren ("mitoPARP"), bestehend aus EGFP und PARP1cd (poly-ADP-Ribose-Polymerase-1), welches auf die mitochondriale Matrix abgezielt wurde. Mit mitochondrialem NAD^+ als Substrat generieren diese Zellen konstitutiv Protein-gebundenes PAR (Protein-gebundene poly-ADP-Ribose), welches immunchemisch visualisiert wird. Variationen im Umfang der erfassten PAR spiegeln damit Veränderungen des mitochondrialen NAD^+-Gehaltes wider. Ebenso wurde die transiente Expression von mitoPARP in HepG2 und HeLa S3 Zellen verwendet.
Ein PAR-Signal hängt sowohl von der katalytischen Aktivität von mitoPARP als auch von der Anwesenheit von NAD^+ ab. Folglich erlaubt die mitoPARP-Expression die Erkennung von Änderungen im mitochondrialen NAD^+-Gehalt.

HeLa S3 Zellen = experiment: Mitochondrial NAD+ content by PAR formation (transient mitoPARP) in HeLa S3 cells; format: cell-based, menschlichen Zellen; settings: FK866 (2 µM), 100 µM metabolite, Fig. 3B
menschlichen Zellen [4] = experiment: Cell viability (MTT assay) with extracellular precursors and inhibitors, cell line not stated; format: cell-based
[5] = NAD^+ as extracellular precursor, competitive NPP substrate added (1 mM Ap4A), effect similar to PPADS
[6] = NMN as precursor, 2 mM CMP added
[7] = extracellular NR (100 µM), b59: in Gegenwart von CMP, Fig. 4B
[8] = NAD^+ as extracellular precursor, inhibitor added (25 µM PPADS), cell line not stated

With `Nc1ncnc2c1ncn2[C@@H]1O[C@H](COP(=O)(O)OP(=O)(O)OP(=O)(O)OP(=O)(O)OC[C@H]2O[C@@H](n3cnc4c(N)ncnc43)[C@H](O)[C@@H]2O)[C@@H](O)[C@H]1O` [Ap4A, Diadenosintetraphosphat] the “Lebensfähigkeit der Zellen” value (293mitoPARP Zellen [1]; [5]) was “ähnlichen Effekt” and the “Lebensfähigkeit der Zellen” value (HeLa S3-Zellen; [5]) was “ähnlichen Effekt”.
`Nc1ccn([C@@H]2O[C@H](COP(=O)(O)O)[C@@H](O)[C@H]2O)c(=O)n1` [CMP] was tested, and the Zellviabilität (293mitoPARP Zellen [1]; [6]) was “verringert” and the Zellviabilität (HeLa S3-Zellen; [6]) was “verringert”.
In the case of `OCCN(CCO)c1nc(N2CCCCC2)c2nc(N(CCO)CCO)nc(N3CCCCC3)c2n1` [Dipyridamol], the “Funktion von NMN als extrazellulärer NAD^+-Vorläufer” value (menschlichen Zellen [2]; Fig. 4A) was “verlor NMN seine Funktion” and the NR-Nutzung (menschlichen Zellen [2]; Fig. 4B) was “hemmen”.
In the case of `O=C(/C=C/c1cccnc1)NCCCCC1CCN(C(=O)c2ccccc2)CC1` [FK866], the “Nam Nutzung” value (menschlichen Zellen [2]; 2 µM FK866, Fig. 3) was “gehemmt”.
`O=C(O)c1cccnc1` [NA, Nikotinsäure] was tested, and the Zell-Überleben (293mitoPARP Zellen [1]) was “wiederherstellen”, the “mitochondrialer NAD^+-Gehalt (PAR)” value (293mitoPARP Zellen [3]) was “wiederherstellen” and the Überleben (HeLa S3-Zellen) was “Restaurierung des Überlebens”.
For `O=C([O-])c1ccc[n+]([C@@H]2O[C@H](COP(=O)(O)O)[C@@H](O)[C@H]2O)c1` [NAMN, Nikotinsäure-Mononukleotid], the “mitochondriale NAD^+-Bildung” value (HeLa S3 Zellen) was “unterstützen”, the “mitochondriale NAD^+-Generierung von NAMN” value (menschlichen Zellen [2]; NAMN as precursor in presence of CMP, Dipyridamol, NBTI, Fig. 4A) was “sensitiv gegenüber diesen Inhibitoren, wenn auch weniger stark” and the Zell-Überleben (293mitoPARP Zellen [1]) was “schützen; also recorded: wiederherstellen”. The “mitochondrialer NAD^+-Gehalt (PAR)” value (293mitoPARP Zellen [3]) was “unterstützen; also recorded: wiederherstellen” and the Überleben (HeLa S3-Zellen) was “schützen; also recorded: Restaurierung des Überlebens”.
`O=[N+]([O-])c1ccc(CSc2ncnc3c2ncn3[C@@H]2O[C@H](CO)[C@@H](O)[C@H]2O)cc1` [NBTI] was tested, and the “Funktion von NMN als extrazellulärer NAD^+-Vorläufer” value (menschlichen Zellen [2]; Fig. 4A) was “verlor NMN seine Funktion” and the NR-Nutzung (menschlichen Zellen [2]; Fig. 4B) was “hemmen”.
`NC(=O)c1ccc[n+]([C@@H]2O[C@H](COP(=O)([O-])O)[C@@H](O)[C@H]2O)c1` [NMN, Nikotinamid-Mononukleotid] was tested, and the “mitochondriale NAD^+-Bildung” value (HeLa S3 Zellen) was “unterstützen”, the Zell-Überleben (293mitoPARP Zellen [1]) was “schützen; also recorded: wiederherstellen” and the “mitochondrialer NAD^+-Gehalt (PAR)” value (293mitoPARP Zellen [3]) was “unterstützen; also recorded: wiederherstellen”. The Überleben (HeLa S3-Zellen) was “schützen; also recorded: Restaurierung des Überlebens”.
`NC(=O)c1ccc[n+]([C@@H]2O[C@H](CO)[C@@H](O)[C@H]2O)c1` [NR, 1-[3,4-Dihydroxy-5-(hydroxymethyl)oxolan-2-yl]pyridin-5-carboxamid] was tested, and the “mitochondriale PAR-Bildung / mitochondriale NAD^+-Generierung” value (menschlichen Zellen [2]; [7]) was “unterstützt” and the “Zelllebensfähigkeit / Zellviabilität” value (menschlichen Zellen [4]; [7]) was “unterstützt”.
With `Cc1nc(N=Nc2ccc(S(=O)(=O)O)cc2S(=O)(=O)O)c(COP(=O)(O)O)c(C=O)c1O` [PPADS] the “Wiederherstellung des mitochondrialen NAD^+-Pools” value (menschlichen Zellen [2]; [8]) was “verhindert” and the “Überleben der Zelle” value (menschlichen Zellen [4]; [8]) was “verhindert”.
